Structures can show the parent of a compound that is named as a salt. Values belong to the molecule of their own block, whether it stands above or below them.
Columns and labels:
male db/db mice [1] = test: Effect of concomitant use with pioglitazone hydrochloride on hypoglycemic activity; type: in vivo; settings: relative to control; for blood glucose decreasing rate (%) Day 3: 3 hours after administration
Procedure: To 8-week-old male db/db mice grouped according to full feed glucose level were orally administered a 0.5% methyl cellulose suspension of the test compound {note: Example 4-5 (10 mg/kg)} (test compound-administered group), a 0.5% methyl cellulose suspension of Pioglitazone hydrochloride (3 mg/kg) (Pioglitazone-administered group), simultaneously both a 0.5% methyl cellulose suspension of the test compound and a 0.5% methyl cellulose suspension (Pioglitazone hydrochloride 3 mg/kg) (test compound and Pioglitazone concomitant use group), or a 0.5% methyl cellulose solution alone (control group), once a day for 3 days.
(§1) Blood was drawn under fasting condition, which condition was started simultaneously with the administration by means of removing the feed. The blood was drawn under anesthesia from the orbital vein on day 1 of administration and 3 hours after the administration on day 3. The blood thus taken was centrifuged and the glucose level was measured from the obtained plasma by the hexokinase method (glucose kit). For evaluation, the percentage (%) of decrease in the glucose level of each group other than the control group relative to the control group is shown.

male SD rats = test: Effect of concomitant use with insulin on hypoglycemic activity; type: in vivo; settings: 1 hour after vs before insulin
Procedure: For drawing blood, the animals were fasted after insulin administration. The blood thus taken was centrifuged and the glucose level was measured from the obtained plasma by the hexokinase method (glucose measurement kit). For evaluation, the percentage (%) of decrease in the glucose level of the test compound and insulin concomitant use group and insulin administration group one hour later relative to before insulin administration is shown.

male db/db mice [2] = test: Effect of concomitant use with tolbutamide on hypoglycemic activity; type: in vivo; settings: relative to control
Procedure: (§2) To 10-week-old male db/db mice grouped according to glucose level were orally administered a 0.5% methyl cellulose suspension of the test compound {note: Example 4-5 (5 mg/kg)} (test compound-administered group), a 0.5% methyl cellulose suspension of tolbutamide (30 mg/kg) (tolbutamide-administered group), simultaneously both a 0.5% methyl cellulose suspension of the test compound and a 0.5% methyl cellulose suspension (tolbutamide 30 mg/kg) (test compound and tolbutamide concomitant use group), or a 0.5% methyl cellulose solution alone (control group).
as §1, with “5” for “on day 1 of administration and 3”, “administration.” for “administration on day 3.”, “(glucose measurement” for “(glucose”

male db/db mice [3] = test: Effect of concomitant use with nateglinide on hypoglycemic activity; type: in vivo; settings: relative to control
Procedure: as §2, with “nateglinide” for “tolbutamide”, “(nateglinide-administered” for “(tolbutamide-administered”, “(nateglinide” for “(tolbutamide”
as §1, with “2” for “on day 1 of administration and 3”, “administration.” for “administration on day 3.”, “(glucose measurement” for “(glucose”

female ob/ob mice [4] = test: Effect of concomitant use with voglibose on hypoglycemic activity (sucrose loading); type: in vivo; settings: after sucrose loading 2 g/kg, relative to control
Procedure: To 9-week-old female ob/ob mice grouped according to glucose level were orally administered a 0.5% methyl cellulose suspension of the test compound {note: Example 4-2 (1 mg/kg)} (test compound-administered group), a 0.5% methyl cellulose suspension of voglibose (0.3 mg/kg) (voglibose-administered group), simultaneously both a 0.5% methyl cellulose suspension of the test compound and a 0.5% methyl cellulose suspension (voglibose 0.3 mg/kg) (test compound and voglibose concomitant use group), or a 0.5% methyl cellulose solution alone (control group). One hour later, sucrose (2 g/5 mL/kg) was loaded.
as §1, with “loading” for “administration”, “vein” for “vein on day”, “1” for “1 of administration”, “2” for “3”, “sucrose loading.” for “administration on day 3.”

female ob/ob mice [5] = test: Effect of concomitant use with metformin hydrochloride on hypoglycemic activity; type: in vivo; settings: relative to control
Procedure: (§3) To 10-week-old female ob/ob mice grouped according to glucose level were orally administered a 0.5% methyl cellulose suspension of the test compound {note: Example 4-2 (1 mg/kg)} (test compound-administered group), a 0.5% methyl cellulose suspension of metformin chloride (30 mg/kg) (metformin-administered group), simultaneously both a 0.5% methyl cellulose suspension of the test compound and a 0.5% methyl cellulose suspension (metformin chloride 30 mg/kg) (test compound and metformin concomitant use group), or a 0.5% methyl cellulose solution alone (control group). The ob/ob mice were fasted for 3 hours before administration.
as §1, with “3” for “on day 1 of administration”, “5” for “3”, “administration.” for “administration on day 3.”

female ob/ob mice [6] = test: Effect of concomitant use with glibenclamide on hypoglycemic activity; type: in vivo; settings: relative to control
Procedure: as §3, with “glibenclamide (3” for “metformin chloride (30”, “(glibenclamide-administered” for “(metformin-administered”, “(glibenclamide 3” for “(metformin chloride 30”, “glibenclamide” for “metformin”, “group).” for “group). The ob/ob mice were fasted for 3 hours before administration.”
as §1, with “The blood was drawn under anesthesia from the orbital vein on day 1 of administration and 3 hours after the administration on day 3.” left out

[7] = biological target: T1, Recombinant human protein tyrosine phosphatase 1B (Homo sapiens, UniProt P18031); test: Protein tyrosine phosphatase 1B inhibitory activity (malachite green, phosphorylated insulin receptor peptide substrate); type: biochemical; settings: recombinant human PTP1B, 60 min room temperature, absorbance 650 nm
T1 construct: purchased UBI
T1 sequence (P18031 1-435): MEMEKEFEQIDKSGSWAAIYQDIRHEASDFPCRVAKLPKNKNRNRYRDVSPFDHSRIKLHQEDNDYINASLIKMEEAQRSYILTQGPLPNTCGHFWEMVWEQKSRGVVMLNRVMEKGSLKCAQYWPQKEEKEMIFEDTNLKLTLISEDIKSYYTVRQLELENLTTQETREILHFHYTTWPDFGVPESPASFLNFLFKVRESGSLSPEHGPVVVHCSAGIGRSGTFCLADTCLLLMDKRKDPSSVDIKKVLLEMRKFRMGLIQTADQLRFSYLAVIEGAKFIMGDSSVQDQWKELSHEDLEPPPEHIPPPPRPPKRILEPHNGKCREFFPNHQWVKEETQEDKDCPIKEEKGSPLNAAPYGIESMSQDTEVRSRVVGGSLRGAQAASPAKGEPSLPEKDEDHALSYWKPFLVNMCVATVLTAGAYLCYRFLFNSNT

male ob/ob mice = test: Hypoglycemic activity in ob/ob mice; type: in vivo; settings: dose 1 mg/kg oral, fasting, relative to control group
Procedure: A 0.5% methyl cellulose suspension of the test compound was orally administered to 6- to 9-week-old male ob/ob mice grouped according to the glucose level. Only a 0.5% methyl cellulose solution was administered to a control group.
Blood was drawn under fasting condition, which condition was started simultaneously with the administration by means of removing the feed. The blood was drawn under anesthesia from the orbital vein 3 hours after the administration. The blood thus taken was centrifuged and the glucose level was measured from the obtained plasma by the hexokinase method (glucose measurement kit). For evaluation, the percentage (%) of decrease in the glucose level of the test compound-administered group relative to the control group is shown.

[8] = Pioglitazone hydrochloride 3 mg/kg oral once a day alone
[9] = test compound 5 mg/kg oral alone
[10] = test compound 10 mg/kg + Pioglitazone hydrochloride 3 mg/kg oral once a day
[11] = test compound 10 mg/kg oral once a day alone
[12] = test compound 1 mg/kg + voglibose 0.3 mg/kg oral
[13] = test compound 1 mg/kg oral alone
[14] = test compound 1 mg/kg + metformin chloride 30 mg/kg oral, ob/ob mice
[15] = test compound 1 mg/kg oral alone, ob/ob mice fasted 3 hours before administration
[16] = test compound 1 mg/kg + glibenclamide 3 mg/kg oral
[17] = metformin chloride 30 mg/kg oral alone, ob/ob mice
[18] = glibenclamide 3 mg/kg oral alone

Structure (SMILES): CCc1ccc(CCOc2ccc(CC3SC(=O)NC3=O)cc2)nc1 (stereo not drawn) [Pioglitazone, pioglitazone hydrochloride, reference compound]
blood glucose decreasing rate (%) Day 3 (male db/db mice [1]; [8]): 44%
blood glucose decreasing rate (%) Day of start of administration (male db/db mice [1]; [8]): 11%

Structure (SMILES): CCCC(CCC)c1ccc(CN(C)c2ccc(-c3csc(CN(CC(=O)[O-])Cc4ccccc4)n3)cc2)cc1.[Na+] [Example 3-40]
blood glucose decreasing rate (%) Day of start of administration (male SD rats; test compound 30 mg/kg oral once a day + insulin 0.6 U/kg s.c. 3 hours later): 43%
blood glucose decreasing rate (%) Day 8 (male SD rats; test compound 30 mg/kg oral once a day for 8 days + insulin 0.6 U/kg s.c.): 36%

melting point: 153 to 155 °C
Structure (SMILES): CCCC(CCC)c1ccc(OCc2ccc(-c3ccc(COc4cncc(C(=O)O)c4)s3)cc2)cc1 [Example 4-5]
blood glucose decreasing rate (%) 5 hours later (male db/db mice [2]; test compound 5 mg/kg + tolbutamide 30 mg/kg oral): 30%
blood glucose decreasing rate (%) 5 hours later (male db/db mice [2]; [9]): 26%
blood glucose decreasing rate (%) Day 3 (male db/db mice [1]; [10]): 48%
blood glucose decreasing rate (%) Day of start of administration (male db/db mice [1]; [10]): 30%
blood glucose decreasing rate (%) Day 3 (male db/db mice [1]; [11]): 32%
blood glucose decreasing rate (%) Day of start of administration (male db/db mice [1]; [11]): 24%
blood glucose decreasing rate (%) 2 hours later (male db/db mice [3]; test compound 5 mg/kg + nateglinide 30 mg/kg oral): 19%
blood glucose decreasing rate (%) 2 hours later (male db/db mice [3]; [9]): 11%

Structure (SMILES): CCCC(CCC)c1ccc(OCc2ccc(-c3csc(COc4cncc(C(=O)O)c4)c3)cc2)cc1 [Example 4-2, 5-(4-{4-[4-(1-Propylbutyl)phenoxymethyl]phenyl}thiophen-2-ylmethoxy)nicotinic acid]
blood glucose decreasing rate (%) 1 hour later (female ob/ob mice [4]; [12]): 49%
blood glucose decreasing rate (%) 2 hours later (female ob/ob mice [4]; [12]): 54%
blood glucose decreasing rate (%) 1 hour later (female ob/ob mice [4]; [13]): 32%
blood glucose decreasing rate (%) 2 hours later (female ob/ob mice [4]; [13]): 40%
blood glucose decreasing rate (%) 3 hours later (female ob/ob mice [5]; [14]): 40%
blood glucose decreasing rate (%) 5 hours later (female ob/ob mice [5]; [14]): 51%
blood glucose decreasing rate (%) 3 hours later (female ob/ob mice [5]; [15]): 19%
blood glucose decreasing rate (%) 5 hours later (female ob/ob mice [5]; [15]): 20%
blood glucose decreasing rate (%) 3 hours later (female ob/ob mice [6]; [16]): 64%
blood glucose decreasing rate (%) 15 hours later (female ob/ob mice [6]; [16]): 60%
blood glucose decreasing rate (%) 3 hours later (female ob/ob mice [6]; [13]): 48%
blood glucose decreasing rate (%) 15 hours later (female ob/ob mice [6]; [13]): 20%

Structure (SMILES): CN(C)C(=N)N=C(N)N [Metformin, metformin hydrochloride, reference compound]
blood glucose decreasing rate (%) 3 hours later (female ob/ob mice [5]; [17]): 17%
blood glucose decreasing rate (%) 5 hours later (female ob/ob mice [5]; [17]): 39%

Structure (SMILES): CC(C)[C@H]1CC[C@H](C(=O)N[C@H](Cc2ccccc2)C(=O)O)CC1 [Nateglinide, nateglinide, reference compound]
blood glucose decreasing rate (%) 2 hours later (male db/db mice [3]; nateglinide 30 mg/kg oral alone): 5%

Structure (SMILES): CCCCNC(=O)NS(=O)(=O)c1ccc(C)cc1 [Tolbutamide, tolbutamide, reference compound]
blood glucose decreasing rate (%) 5 hours later (male db/db mice [2]; tolbutamide 30 mg/kg oral alone): 26%

IC50 [7]: 0.2 µM
melting point: 145 to 148 °C
Structure (SMILES): CCCC(CCC)c1ccc(COc2ccc(-c3csc(CN(CC(=O)O)Cc4ccccc4)n3)cc2)cc1 [Example 3-10]
blood glucose decreasing rate (%) 3 hours later (male ob/ob mice): 18%

Structure (SMILES): COc1ccc(Cl)cc1C(=O)NCCc1ccc(S(=O)(=O)NC(=O)NC2CCCCC2)cc1 [Glibenclamide, glibenclamide, reference compound]
blood glucose decreasing rate (%) 3 hours later (female ob/ob mice [6]; [18]): 44%
blood glucose decreasing rate (%) 15 hours later (female ob/ob mice [6]; [18]): 40%

Structure (SMILES): OCC(CO)N[C@H]1C[C@](O)(CO)[C@@H](O)[C@H](O)[C@H]1O [Voglibose, voglibose, reference compound]
blood glucose decreasing rate (%) 1 hour later (female ob/ob mice [4]; voglibose 0.3 mg/kg oral alone): 35%
blood glucose decreasing rate (%) 2 hours later (female ob/ob mice [4]; voglibose 0.3 mg/kg oral alone): 38%

IC50 [7]: 0.48 µM
melting point: 185 to 190 °C
Structure (SMILES): CN(Cc1ccc(C2CCCCC2)cc1)c1ccc(-c2csc(CNC(Cc3ccccc3)C(=O)O)n2)cc1 (stereo not drawn) [Example 3-76]
blood glucose decreasing rate (%) 3 hours later (male ob/ob mice): 33%
